Test systems include SR; CCRF-CEM; RXF 393; SN12C; A498; M14; SF-295; HCT-15; NCI-H226; TK-10; K562; SK-MEL-2; SK-OV-3; HOP-62; LOX IMVI; CAKI-1; SK-MEL-5; SF-268.
Holding throughout (assay): growth of human tumour cells (NCI), 48 h

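These data come from cells grown in 96-well plates and exposed to compound for 48 hours at five concentrations. GI50: concentration for 50% inhibition of growth.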 Activity calls are given as the source filed them. Rule as the data show it: active = GI50 up to about 1.1 µM and inactive = higher. A value given as a limit tells only on which side of the number the result lay.

Turning to `C/C(=N\Nc1ccc([N+](=O)[O-])cc1)C(=O)N(C)Nc1ccccc1`, the GI50 with SR was 47.8 µM (inactive); in the assay on CCRF-CEM, > 100 µM (inactive); in the assay on RXF 393 it was 58.1 µM (inactive); with SN12C, 74 µM (inactive); with A498 it was 29 µM (inactive); in the assay on M14, 43.2 µM (inactive). For the same molecule, the GI50 in the assay with SF-295 is 34.5 µM (inactive); in the assay with HCT-15, 48.1 µM; in the assay with NCI-H226, 38.9 µM (inactive); in the assay with TK-10 it was 64.3 µM (inactive); with K562 it was 63.2 µM (inactive); in the assay on SK-MEL-2 it was 29.1 µM (inactive). Moreover, the values for the GI50 in the assay on SK-OV-3, in the assay on HOP-62 and with LOX IMVI were > 100 µM (inactive), > 100 µM (inactive) and 64.4 µM (inactive), respectively.

Take `COC(=O)C(Cc1nc2ccccc2nc1O)C(NO)C(=O)Nc1c(Cl)cc([N+](=O)[O-])cc1Cl` (stereo not given): the GI50 was 31.3 µM (inactive) in the assay with SR; 27.6 µM (inactive) in the assay with CAKI-1; 23.3 µM (inactive) in the assay with CCRF-CEM; 16.5 µM (inactive) in the assay on RXF 393; 45.3 µM (inactive) in the assay with SN12C; 21.4 µM (inactive) with A498. Further, the GI50 is 50.1 µM (inactive) with M14; 18 µM (inactive) in the assay with SK-MEL-5; 27.7 µM (inactive) with SF-295; 49.2 µM with HCT-15; 32.8 µM (inactive) with SF-268; 40.8 µM (inactive) in the assay on K562. Also, the GI50 in the assay on SK-MEL-2 is 32.1 µM (inactive); in the assay on SK-OV-3, 37.9 µM (inactive); with HOP-62, 26 µM (inactive).

`CC1CC[C@]2(C(=O)O)CCC3(COC(=O)/C=C\c4ccc(O)cc4)C(=CCC4[C@@]5(C)CC[C@H](O)C(C)(C)C5CC[C@]43C)[C@@H]2[C@H]1C` (stereo not given in full): the GI50 is 20.6 µM (inactive) in the assay with SR; 11.4 µM (inactive) in the assay on CAKI-1; 20.4 µM (inactive) in the assay on CCRF-CEM; 17.5 µM (inactive) with RXF 393; 20.8 µM (inactive) in the assay with SN12C; 27 µM (inactive) in the assay on A498. Moreover, the GI50 with M14 is 17.6 µM (inactive); in the assay on SK-MEL-5, 18.2 µM (inactive); with SF-295, 17.1 µM (inactive); with HCT-15, 21 µM; in the assay with NCI-H226, 18.5 µM (inactive); with TK-10, 21.7 µM (inactive). Further, the GI50 is 14.7 µM (inactive) in the assay with SF-268; 13 µM (inactive) with K562; 20.8 µM (inactive) in the assay on SK-MEL-2; 3.5 µM (inactive) in the assay on SK-OV-3; 14.1 µM (inactive) with LOX IMVI.

Regarding `CC12CCC[C@@](C)(C(=O)OC3OC(CO)C(O)C(O)C3O)[C@H]1CCC13CC4CC(OC4(CO)[C@H]1O)[C@@H]23` (stereo not given in full), the GI50 in the assay on SR, with CAKI-1, in the assay on CCRF-CEM, in the assay on RXF 393, with SN12C and in the assay with A498 was > 100 µM (inactive) each time. For the same molecule, the GI50 in the assay with M14 was > 100 µM (inactive); with SK-MEL-5, > 100 µM (inactive); in the assay with SF-295, > 100 µM (inactive); in the assay on HCT-15 it was 53.7 µM; in the assay with NCI-H226, > 100 µM (inactive); with TK-10, > 100 µM (inactive). The GI50 in the assay with SF-268, with K562, in the assay on SK-MEL-2, in the assay on SK-OV-3 and in the assay with HOP-62 was > 100 µM (inactive) each time.

In the case of `O=S(=O)(O)SC/C=C\CSS(=O)(=O)O`, the GI50 in the assay on SR, with CAKI-1, in the assay with RXF 393, with SN12C, with A498 and with M14 was > 100 µM (inactive) each time. Moreover, the GI50 in the assay with SK-MEL-5 is > 100 µM (inactive); with SF-295 it was 31.3 µM (inactive); in the assay on HCT-15, above 100 µM; in the assay with NCI-H226 it was 49.7 µM (inactive); with TK-10 it was > 100 µM (inactive); with SF-268, 48.9 µM (inactive). The GI50 with K562 was > 100 µM (inactive); in the assay on SK-OV-3 it was 57.8 µM (inactive); in the assay with HOP-62, > 100 µM (inactive); in the assay with LOX IMVI, 24.8 µM (inactive).

Source of the values: ChEMBL document CHEMBL1201862, “PubChem BioAssay data set” (2004).
